{"source": "PubChem BioAssay AID2060492", "about": "(Molecular Pharmacology Branch, DTP, NCI, 2025);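 note: spheroids exposed to compounds for seven days before readout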", "tested_on": "695427-040-R-J1-PDC complex spheroids, viability percent T/C", "experiment": "Anticancer human tumor 695427-040-R-J1-PDC patient-derived colon adenocarcinoma cell line growth inhibition [GQUAD]", "conditions": "for IC50: curve of first compound; for viability, T/C: stronger effect = lower value", "procedure,_shortened": "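Multi-cell-type spheroids of tumor cells with HUVEC and mesenchymal stem cells, treated with drug combinations. Concentrations descend in half-log steps from near clinical Cmax, or from 10 microM where Cmax is unknown; viability read-out.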", "key": {"[1]": {"conditions": "second compound 0.0316 µM, first compound 0.0316 µM"}, "[2]": {"conditions": "second compound 0.0316 µM, first compound 0.1 µM"}, "[3]": {"conditions": "second compound 0.0316 µM, first compound 0.316 µM"}, "[4]": {"conditions": "second compound 0.0316 µM, first compound 1 µM"}, "[5]": {"conditions": "second compound 0.0316 µM, first compound 3.16 µM"}, "[6]": {"conditions": "second compound 0.0316 µM, first compound 10 µM"}, "[7]": {"conditions": "second compound 0.1 µM, first compound 0.0316 µM"}, "[8]": {"conditions": "second compound 0.1 µM, first compound 0.1 µM"}, "[9]": {"conditions": "second compound 0.1 µM, first compound 0.316 µM"}, "[10]": {"conditions": "second compound 0.1 µM, first compound 1 µM"}, "[11]": {"conditions": "second compound 0.1 µM, first compound 3.16 µM"}, "[12]": {"conditions": "second compound 0.1 µM, first compound 10 µM"}, "[13]": {"conditions": "second compound 0.316 µM, first compound 0.0316 µM"}, "[14]": {"conditions": "second compound 0.316 µM, first compound 0.1 µM"}, "[15]": {"conditions": "second compound 0.316 µM, first compound 0.316 µM"}, "[16]": {"conditions": "second compound 0.316 µM, first compound 1 µM"}, "[17]": {"conditions": "second compound 0.316 µM, first compound 3.16 µM"}, "[18]": {"conditions": "second compound 0.316 µM, first compound 10 µM"}, "[19]": {"conditions": "second compound 1 µM, first compound 0.0316 µM"}, "[20]": {"conditions": "second compound 1 µM, first compound 0.1 µM"}, "[21]": {"conditions": "second compound 1 µM, first compound 0.316 µM"}, "[22]": {"conditions": "second compound 1 µM, first compound 1 µM"}, "[23]": {"conditions": "second compound 1 µM, first compound 3.16 µM"}, "[24]": {"conditions": "second compound 1 µM, first compound 10 µM"}, "[25]": {"conditions": "second compound 3.16 µM, first compound 0.0316 µM"}, "[26]": {"conditions": "second compound 3.16 µM, first compound 0.1 µM"}, "[27]": {"conditions": "second compound 3.16 µM, first compound 0.316 µM"}, "[28]": {"conditions": "second compound 3.16 µM, first compound 1 µM"}, "[29]": {"conditions": "second compound 3.16 µM, first compound 3.16 µM"}, "[30]": {"conditions": "second compound 3.16 µM, first compound 10 µM"}, "[31]": {"conditions": "second compound 10 µM, first compound 0.0316 µM"}, "[32]": {"conditions": "second compound 10 µM, first compound 0.1 µM"}, "[33]": {"conditions": "second compound 10 µM, first compound 0.316 µM"}, "[34]": {"conditions": "second compound 10 µM, first compound 1 µM"}, "[35]": {"conditions": "second compound 10 µM, first compound 3.16 µM"}, "[36]": {"conditions": "second compound 10 µM, first compound 10 µM"}}, "data": [{"smiles": "Cc1cccc(N(C)C(=O)C2C(O)CCN2c2nc(C)cc(C(F)(F)F)c2C#N)c1", "note": "(centres undefined) + CN(C)c1ccc(Nc2c3ccc(NC(=O)CCN4CCCC4)cc3nc3cc(NC(=O)CCN4CCCC4)ccc23)cc1", "values": [{"measurement": "IC50", "setting": "second compound 0.0316 µM", "value": "> 10", "unit": "µM"}, {"measurement": "IC50", "setting": "second compound 0.1 µM", "value": "> 10", "unit": "µM"}, {"measurement": "IC50", "setting": "second compound 0.316 µM", "value": "> 10", "unit": "µM"}, {"measurement": "IC50", "setting": "second compound 1 µM", "value": "> 10", "unit": "µM"}, {"measurement": "IC50", "setting": "second compound 3.16 µM", "value": "> 10", "unit": "µM"}, {"measurement": "IC50", "setting": "second compound 10 µM", "value": "> 10", "unit": "µM"}, {"measurement": "viability, T/C", "setting": "[1]", "value": 111, "unit": "%"}, {"measurement": "viability, T/C", "setting": "[2]", "value": 103, "unit": "%"}, {"measurement": "viability, T/C", "setting": "[3]", "value": 106, "unit": "%"}, {"measurement": "viability, T/C", "setting": "[4]", "value": 99.9, "unit": "%"}, {"measurement": "viability, T/C", "setting": "[5]", "value": 107, "unit": "%"}, {"measurement": "viability, T/C", "setting": "[6]", "value": 90.3, "unit": "%"}, {"measurement": "viability, T/C", "setting": "[7]", "value": 110, "unit": "%"}, {"measurement": "viability, T/C", "setting": "[8]", "value": 92.3, "unit": "%"}, {"measurement": "viability, T/C", "setting": "[9]", "value": 106, "unit": "%"}, {"measurement": "viability, T/C", "setting": "[10]", "value": 102, "unit": "%"}, {"measurement": "viability, T/C", "setting": "[11]", "value": 101, "unit": "%"}, {"measurement": "viability, T/C", "setting": "[12]", "value": 95.6, "unit": "%"}, {"measurement": "viability, T/C", "setting": "[13]", "value": 110, "unit": "%"}, {"measurement": "viability, T/C", "setting": "[14]", "value": 101, "unit": "%"}, {"measurement": "viability, T/C", "setting": "[15]", "value": 97.3, "unit": "%"}, {"measurement": "viability, T/C", "setting": "[16]", "value": 98.2, "unit": "%"}, {"measurement": "viability, T/C", "setting": "[17]", "value": 107, "unit": "%"}, {"measurement": "viability, T/C", "setting": "[18]", "value": 103, "unit": "%"}, {"measurement": "viability, T/C", "setting": "[19]", "value": 104, "unit": "%"}, {"measurement": "viability, T/C", "setting": "[20]", "value": 90.7, "unit": "%"}, {"measurement": "viability, T/C", "setting": "[21]", "value": 98.3, "unit": "%"}, {"measurement": "viability, T/C", "setting": "[22]", "value": 96.1, "unit": "%"}, {"measurement": "viability, T/C", "setting": "[23]", "value": 104, "unit": "%"}, {"measurement": "viability, T/C", "setting": "[24]", "value": 101, "unit": "%"}, {"measurement": "viability, T/C", "setting": "[25]", "value": 93.6, "unit": "%"}, {"measurement": "viability, T/C", "setting": "[26]", "value": 94.6, "unit": "%"}, {"measurement": "viability, T/C", "setting": "[27]", "value": 95.4, "unit": "%"}, {"measurement": "viability, T/C", "setting": "[28]", "value": 95.6, "unit": "%"}, {"measurement": "viability, T/C", "setting": "[29]", "value": 106, "unit": "%"}, {"measurement": "viability, T/C", "setting": "[30]", "value": 93.9, "unit": "%"}, {"measurement": "viability, T/C", "setting": "[31]", "value": 81, "unit": "%"}, {"measurement": "viability, T/C", "setting": "[32]", "value": 86.6, "unit": "%"}, {"measurement": "viability, T/C", "setting": "[33]", "value": 88.9, "unit": "%"}, {"measurement": "viability, T/C", "setting": "[34]", "value": 78.8, "unit": "%"}, {"measurement": "viability, T/C", "setting": "[35]", "value": 91.2, "unit": "%"}, {"measurement": "viability, T/C", "setting": "[36]", "value": 85.8, "unit": "%"}]}, {"smiles": "Nc1ccn(C2OC(CO)C(O)C2(F)F)c(=O)n1", "note": "(centres undefined) + CN(C)c1ccc(Nc2c3ccc(NC(=O)CCN4CCCC4)cc3nc3cc(NC(=O)CCN4CCCC4)ccc23)cc1", "values": [{"measurement": "IC50", "setting": "second compound 0.0316 µM", "value": "> 10", "unit": "µM"}, {"measurement": "IC50", "setting": "second compound 0.1 µM", "value": "> 10", "unit": "µM"}, {"measurement": "IC50", "setting": "second compound 0.316 µM", "value": "> 10", "unit": "µM"}, {"measurement": "IC50", "setting": "second compound 1 µM", "value": "> 10", "unit": "µM"}, {"measurement": "IC50", "setting": "second compound 3.16 µM", "value": "> 10", "unit": "µM"}, {"measurement": "IC50", "setting": "second compound 10 µM", "value": "> 10", "unit": "µM"}, {"measurement": "viability, T/C", "setting": "[1]", "value": 88.9, "unit": "%"}, {"measurement": "viability, T/C", "setting": "[2]", "value": 81, "unit": "%"}, {"measurement": "viability, T/C", "setting": "[3]", "value": 74.9, "unit": "%"}, {"measurement": "viability, T/C", "setting": "[4]", "value": 74.2, "unit": "%"}, {"measurement": "viability, T/C", "setting": "[5]", "value": 72.9, "unit": "%"}, {"measurement": "viability, T/C", "setting": "[6]", "value": 62.7, "unit": "%"}, {"measurement": "viability, T/C", "setting": "[7]", "value": 97.5, "unit": "%"}, {"measurement": "viability, T/C", "setting": "[8]", "value": 82.7, "unit": "%"}, {"measurement": "viability, T/C", "setting": "[9]", "value": 78.3, "unit": "%"}, {"measurement": "viability, T/C", "setting": "[10]", "value": 74.1, "unit": "%"}, {"measurement": "viability, T/C", "setting": "[11]", "value": 69.7, "unit": "%"}, {"measurement": "viability, T/C", "setting": "[12]", "value": 55.3, "unit": "%"}, {"measurement": "viability, T/C", "setting": "[13]", "value": 94.4, "unit": "%"}, {"measurement": "viability, T/C", "setting": "[14]", "value": 83.2, "unit": "%"}, {"measurement": "viability, T/C", "setting": "[15]", "value": 72.7, "unit": "%"}, {"measurement": "viability, T/C", "setting": "[16]", "value": 69.3, "unit": "%"}, {"measurement": "viability, T/C", "setting": "[17]", "value": 68.9, "unit": "%"}, {"measurement": "viability, T/C", "setting": "[18]", "value": 59.8, "unit": "%"}, {"measurement": "viability, T/C", "setting": "[19]", "value": 87.3, "unit": "%"}, {"measurement": "viability, T/C", "setting": "[20]", "value": 78.8, "unit": "%"}, {"measurement": "viability, T/C", "setting": "[21]", "value": 75, "unit": "%"}, {"measurement": "viability, T/C", "setting": "[22]", "value": 70.4, "unit": "%"}, {"measurement": "viability, T/C", "setting": "[23]", "value": 70.5, "unit": "%"}, {"measurement": "viability, T/C", "setting": "[24]", "value": 57.5, "unit": "%"}, {"measurement": "viability, T/C", "setting": "[25]", "value": 76.8, "unit": "%"}, {"measurement": "viability, T/C", "setting": "[26]", "value": 78, "unit": "%"}, {"measurement": "viability, T/C", "setting": "[27]", "value": 71.4, "unit": "%"}, {"measurement": "viability, T/C", "setting": "[28]", "value": 65.2, "unit": "%"}, {"measurement": "viability, T/C", "setting": "[29]", "value": 65.5, "unit": "%"}, {"measurement": "viability, T/C", "setting": "[30]", "value": 54.4, "unit": "%"}, {"measurement": "viability, T/C", "setting": "[31]", "value": 83.1, "unit": "%"}, {"measurement": "viability, T/C", "setting": "[32]", "value": 66.2, "unit": "%"}, {"measurement": "viability, T/C", "setting": "[33]", "value": 66.3, "unit": "%"}, {"measurement": "viability, T/C", "setting": "[34]", "value": 63.6, "unit": "%"}, {"measurement": "viability, T/C", "setting": "[35]", "value": 57.6, "unit": "%"}, {"measurement": "viability, T/C", "setting": "[36]", "value": 48.2, "unit": "%"}]}]}
